Where a chain is given by its changes, count along the chain named. Entries after “also recorded” stand apart in the source; their conditions may differ.
Assays:
C57Bl/6 mice [1] = assay: Behavioral convulsions, modified Racine scale; type: in vivo, mouse; conditions: 100 mg/kg i.p., 3 h, modified Racine scale (0–5)
mouse M1 [2] = biological target: T1, mouse M1 (Mus musculus, UniProt P12657); assay: Calcium mobilization, mM1-CHO cells, PAM mode; type: cell-based
T1 sequence (P12657 1-460): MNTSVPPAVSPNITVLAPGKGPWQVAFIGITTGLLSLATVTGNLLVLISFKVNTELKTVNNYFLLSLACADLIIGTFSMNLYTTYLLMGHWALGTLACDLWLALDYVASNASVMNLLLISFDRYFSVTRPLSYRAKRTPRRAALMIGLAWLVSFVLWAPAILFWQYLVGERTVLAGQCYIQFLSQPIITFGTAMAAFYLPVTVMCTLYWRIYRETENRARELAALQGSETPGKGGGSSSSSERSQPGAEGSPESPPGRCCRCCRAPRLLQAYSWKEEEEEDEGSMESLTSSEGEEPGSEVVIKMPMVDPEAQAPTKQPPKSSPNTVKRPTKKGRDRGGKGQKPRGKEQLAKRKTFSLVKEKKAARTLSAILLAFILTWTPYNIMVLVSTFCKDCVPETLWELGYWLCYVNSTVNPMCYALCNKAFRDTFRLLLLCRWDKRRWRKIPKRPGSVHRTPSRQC

SD rats = assay: Amphetamine-induced hyperlocomotion in rats; type: in vivo, rat; conditions: 30 mg/kg i.p., amphetamine 1 mg/kg s.c.
rats = assay: Novel object recognition task; type: in vivo, rat; conditions: rats, 1, 3, and 10 mg/kg i.p., 30 min pretreatment, assessed 24 h later
M1 [3] = biological target: T2, M1 (Homo sapiens, UniProt P11229); assay: Calcium mobilization, hM1-CHO cells, PAM mode; type: cell-based
T2 sequence (P11229 1-460): T1 sequence (P12657 1-460) with V5A, S254T, K320R, G337A, V413I

C57Bl/6 mice [4] = assay: Spontaneous locomotor activity; type: in vivo, mouse; conditions: 1–10 mg/kg i.p.
M1 [5] = biological target: T2, M1; assay: Discover X bias panel: β-arrestin recruitment assay; type: cell-based
M1 [6] = biological target: T2, M1; assay: Discover X bias panel: M1 receptor internalization; type: cell-based
M1 [7] = biological target: T2, M1; assay: [3H]-NMS competition binding, human M1 membranes
rat M1 [8] = biological target: T3, rat M1 (Rattus norvegicus, UniProt P08482); assay: Calcium mobilization, rM1-CHO cells, agonist mode; type: cell-based
T3 sequence (P08482 1-460): T1 sequence (P12657 1-460) with P309S

[9] = Mouse brain:plasma partition, discrete i.p. dose; conditions: male, C57BL/6J, in vivo, ip, 10 mg/kg
rat M1 [10] = biological target: T3, rat M1; assay: Calcium mobilization, rM1-CHO cells, PAM mode; type: cell-based; conditions: EC20 acetylcholine
mice [11] = assay: Modified Irwin Toxicology Battery; type: in vivo; conditions: 100 mg/kg i.p.
M1 [12] = biological target: T2, M1; assay: Calcium mobilization, hM1-CHO cells, agonist mode; type: cell-based
[13] = Mouse brain concentrations after i.p. dosing; type: in vivo; conditions: 100 mg/kg i.p., mice
hM1 = biological target: T4, hM1 (Homo sapiens, UniProt P11229); assay: Acetylcholine affinity shift at hM1; type: binding
T4 sequence (P11229 1-460): T1 sequence (P12657 1-460) with V5A, S254T, K320R, G337A, V413I

mice [14] = assay: Amphetamine-induced hyperlocomotion in mice; type: in vivo, mouse; conditions: 1–10 mg/kg i.p., amphetamine 3 mg/kg s.c.
[15] = test system: 68 GPCRs, ion channels, and transporters; assay: Eurofin Lead Profiling radioligand binding panel; conditions: 10 μM, 68 targets
mouse M1 [16] = biological target: T1, mouse M1; assay: Mouse M1 agonist activity, calcium mobilization; type: cell-based
mice [17] = conditions: cited from earlier work

With `Cn1cc(-c2ccc(Cn3cc(C(=O)N[C@H]4CCCC[C@@H]4O)c4c(F)cc(F)cc43)cn2)cn1` [Compound 28a, 4,6-Difluoro-N-(1S,2S)-2-hydroxycyclohexyl-1-((6-(1-methyl-1H-pyrazol-4-yl)pyridine-3-yl)methyl)-1H-indole-3-carboxamide] the behavioral convulsions (C57Bl/6 mice [1]) was “did not display observable behavioral seizure activity; also recorded: neither difluoro indole 28a nor 28c (both regioisomeric N-Me pyrazoles) induced behavioral convulsions”, the EC50 (mouse M1 [2]) was 155 nM and the “mACh Max (%)” value (mouse M1 [2]; PAM mode, mM1-CHO cells, EC20 acetylcholine, ± SEM) was 79 ± 1%. The “reversal of amphetamine-induced hyperlocomotion (AHL)” value (SD rats) was “no effect”, the “recognition memory, novel object recognition” value (rats) was “dose-dependently enhanced recognition memory” and the EC50 (M1 [3]) was 214 nM. For the same compound, the “hACh Max (%)” value (M1 [3]; PAM mode, hM1-CHO cells, EC20 acetylcholine, ± SEM) was 86±1%, the “effect on spontaneous (basal) locomotor activity” value (C57Bl/6 mice [4]) was “significantly less effect on spontaneous locomotor activity” and the “effect on spontaneous (basal) locomotor activity” value (C57Bl/6 mice [4]; listed as VU6004256) was “decreased locomotor activity at the highest dose of 10 mg/kg”. The “M1 PAM potency and efficacy in β-arrestin recruitment” value (M1 [5]) was “comparable M1 PAM potency and efficacy”, the EC50 (M1 [6]) was over 10000 nM and the “displacement of orthosteric radioligand [3H]-NMS” value (M1 [7]) was “slight inhibition of binding of the orthosteric radioligand at high concentrations; also recorded: weakly displaced”. The EC50 (rat M1 [8]) was 3980 nM, the “rACh Max (%), agonist” value (rat M1 [8]; agonist mode, rM1-CHO cells, ± SEM) was 68 ± 9% and the Kp at 0.25 h [9] was 4.84. The Kp uu at 0.25 h [9] was 2.61, the “rACh Max (%)” value (rat M1 [10]; PAM mode, ± SEM) was 92 ± 4% and the EC50 (rat M1 [10]; rM1 EC50 (nM), PAM mode) was 141 nM. For the same compound, the EC50 (rat M1 [10]; rM1 pEC50, PAM mode, ± SEM) was 138 nM, the “adverse effects, Modified Irwin Toxicology Battery” value (mice [11]; 100 mg/kg) was “no pronounced cholinergic effects” and the “adverse effects, Modified Irwin Toxicology Battery” value (mice [11]; listed as VU6004256, 100 mg/kg) was “did not cause significant observable adverse effects”. For the same compound, the “hACh Max (%), agonist” value (M1 [12]; hM1-CHO cells, ± SEM) was 56 ± 14%, the EC50 (M1 [12]; hM1 EC50 (μM), agonist, hM1-CHO cells) was 4.8 µM and the EC50 (M1 [12]; hM1 pEC50, agonist, hM1-CHO cells, ± SEM) was 4.68 µM. For the same compound, the “fold weaker M1 agonist than 16” value (M1 [12]; human and rat M1) was 7 fold, the “total maximum brain concentration” value [13] was 49.9 µM and the “unbound maximum brain concentration” value [13] was 649 nM. The “fold shift in ACh potency vs DMSO control” value (“fold shift in ACh potency” for short) (hM1; 0.3 μM PAM) was 11 fold, the “fold shift in ACh potency” value (hM1; 1.0 μM PAM) was 58 fold and the “fold shift in ACh potency” value (hM1; 10 μM PAM) was 178 fold. For the same compound, the “reversal of amphetamine-induced hyperlocomotion (AHL)” value (mice [14]) was “did not reverse AHL in mice”, the “percent inhibition in ancillary pharmacology panel” value [15] was at most 50% and the EC50 (mouse M1 [16]) was 450 nM. For the same compound, the “mouse M1 agonist % ACh Max” value (mouse M1 [16]; agonist activity at mouse M1) was 86%.
In the case of `CCCCCCOc1nsnc1C1=CCCN(C)C1` [xanomeline], the “attenuation of amphetamine-induced activity in M4 knockout mice” value (mice [17]) is listed as “absent”.
